Measurements as given in ChEMBL document CHEMBL1201862, “PubChem BioAssay data set” (2004).
Active and inactive are the calls of the source.

Experiments:
[1] = IC50 of insulin release inhibition, rat insulinoma INS-1E line, 5 mM glucose, cell-based (AID 1117331); assay type: functional
cells = assay type: functional, cell-based; conditions: INS-1E
[2] = viability loss in A549 lung cancer cells – cell-based, CellTiter-Glo luminescence, dry powder, set 5, cytotoxicity control, dose response (AID 743158); assay type: functional
[3] = viability loss in HepG2 hepatoma cells – cell-based, ATP luminescence, dry powder, set 2, cytotoxicity control, dose response (AID 743129); assay type: functional
[4] = viability loss in HEK293T cells – cell-based, ATP luminescence, dry powder, set 3, cytotoxicity control, dose response (AID 743131); assay type: functional; conditions: HEK293
[5] = molecular target: Sphingosine 1-phosphate receptor 2 (Homo sapiens, UniProt O95136); assay: Dose Response Cell Based Assay for Agonists of the S1P2 Receptor. [Related pubchem assays: 729, 736, 843 ]; assay type: functional
[6] = molecular target: Metabotropic glutamate receptor 7 (Homo sapiens, UniProt Q14831); assay: potentiation of glutamate EC20 at mGlu7 – cell-based, calcium mobilization, Galpha15, dose response (AID 743384); assay type: functional
[7] = YAP1 overexpression rescue of CTGF inhibition – DLD1 cells, RT-qPCR, cherry-pick, mechanism study for YAP1 pathway inhibitor project, dose response (AID 1053127); assay type: functional, cell-based; conditions: DLD-1
[8] = P. falciparum Dd2 growth inhibitors, dose response, SYBR Green, cherry-picked samples (AID 1159567); assay type: functional, cell-based
[9] = toxicity to human hepatoma HepG2 cells – cell-based, cherry-picked samples, cytotoxicity control, dose response (AID 1159577); assay type: functional
[10] = molecular target: G-protein coupled receptor 183 (Homo sapiens, UniProt P32249); assay: SAR confirmation of small molecule antagonists of the EBI2 receptor via a luminescent beta-arrestin assa.; assay type: functional
[11] = viability loss in Vero cells – cytotoxicity control for Vif-APOBEC3G degradation inhibitor project, dose response (AID 1117358); assay type: functional; conditions: Vero
[12] = HIV-1 Vif–A3G interaction blockers – biochemical, TR-FRET, GST-Vif 1-94, biotin-A3G peptide, dose response retest, primary screen (AID 1117319); assay type: functional;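 also: TR-FRET signal of purified GST-Vif binding a biotinylated A3G peptide; inhibitors lower the FRET signal by blocking Vif and A3G binding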
[13] = molecular target: T1, Sentrin-specific protease 6 (Homo sapiens, UniProt Q9GZR1); assay type: functional;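 also: Luminescence-based dose-response confirmatory assay of SENP6 inhibition, following up an ultra-high-throughput screen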
T1 sequence (Q9GZR1 whole entry): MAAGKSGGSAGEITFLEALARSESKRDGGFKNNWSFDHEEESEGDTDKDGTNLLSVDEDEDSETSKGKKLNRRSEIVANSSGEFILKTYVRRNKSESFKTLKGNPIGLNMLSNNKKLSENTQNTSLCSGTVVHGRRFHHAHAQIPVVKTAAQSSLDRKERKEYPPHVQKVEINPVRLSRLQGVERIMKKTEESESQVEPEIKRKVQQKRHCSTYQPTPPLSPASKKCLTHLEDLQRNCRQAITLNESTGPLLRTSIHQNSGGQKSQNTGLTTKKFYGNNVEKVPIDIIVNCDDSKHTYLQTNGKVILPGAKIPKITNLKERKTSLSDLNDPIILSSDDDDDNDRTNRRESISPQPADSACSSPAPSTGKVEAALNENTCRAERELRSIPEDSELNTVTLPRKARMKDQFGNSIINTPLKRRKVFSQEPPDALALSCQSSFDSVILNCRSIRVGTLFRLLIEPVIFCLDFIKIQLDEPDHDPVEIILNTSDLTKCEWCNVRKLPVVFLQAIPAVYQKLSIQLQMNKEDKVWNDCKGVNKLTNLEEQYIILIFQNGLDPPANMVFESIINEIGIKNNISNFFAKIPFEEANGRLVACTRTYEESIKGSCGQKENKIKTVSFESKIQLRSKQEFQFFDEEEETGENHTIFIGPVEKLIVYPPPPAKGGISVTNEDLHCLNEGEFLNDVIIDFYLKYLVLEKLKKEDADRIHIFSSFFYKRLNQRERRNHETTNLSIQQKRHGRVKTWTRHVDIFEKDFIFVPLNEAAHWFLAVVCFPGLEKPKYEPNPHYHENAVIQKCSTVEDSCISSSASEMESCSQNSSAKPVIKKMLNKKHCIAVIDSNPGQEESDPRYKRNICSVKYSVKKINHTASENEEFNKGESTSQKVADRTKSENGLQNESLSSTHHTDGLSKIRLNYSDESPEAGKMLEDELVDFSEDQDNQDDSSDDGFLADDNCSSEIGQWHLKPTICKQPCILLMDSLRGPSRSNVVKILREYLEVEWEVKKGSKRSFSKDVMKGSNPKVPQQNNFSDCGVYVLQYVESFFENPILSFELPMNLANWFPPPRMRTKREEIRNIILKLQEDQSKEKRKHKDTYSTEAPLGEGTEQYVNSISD

Caspase-7 = Caspase-7 (Homo sapiens, UniProt P55210); assay: caspase-7 enzyme inhibition, selectivity check – biochemical, DEVD-R110 fluorescence, cherry-pick, selectivity assay for caspase-6 inhibitor project, dose response (AID 743295); assay type: functional
[14] = molecular target: T2, Sentrin-specific protease 8 (Homo sapiens, UniProt Q96LD8); assay type: functional;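 also: luminescence read-out of SENP8 inhibition, dose-response confirmation following an ultra-high-throughput screen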
T2 sequence (Q96LD8 whole entry): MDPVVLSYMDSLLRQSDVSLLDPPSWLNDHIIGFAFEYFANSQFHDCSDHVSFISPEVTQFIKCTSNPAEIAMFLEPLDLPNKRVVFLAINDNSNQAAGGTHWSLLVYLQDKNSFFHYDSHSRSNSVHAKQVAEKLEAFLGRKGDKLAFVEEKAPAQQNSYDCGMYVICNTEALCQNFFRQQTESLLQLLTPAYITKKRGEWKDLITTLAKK

[15] = molecular target: T3, Mitochondrial peptide methionine sulfoxide reductase (Bos taurus, UniProt P54149); assay: Absorbance-based biochemical high throughput dose response assay for activators of Methionine sulfoxide reductase A (MsrA).; assay type: functional
T3 sequence (P54149 whole entry): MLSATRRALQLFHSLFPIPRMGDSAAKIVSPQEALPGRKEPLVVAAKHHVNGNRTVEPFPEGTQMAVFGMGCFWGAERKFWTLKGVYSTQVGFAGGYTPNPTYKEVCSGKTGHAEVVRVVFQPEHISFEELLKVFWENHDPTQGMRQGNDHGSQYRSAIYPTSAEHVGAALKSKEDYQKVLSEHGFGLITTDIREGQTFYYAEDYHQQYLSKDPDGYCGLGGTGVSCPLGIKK

[16] = molecular target: T4, Sentrin-specific protease 7 (Homo sapiens, UniProt Q9BQF6); assay type: functional;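 also: Luminescence-based dose-response confirmation of ultra-high-throughput screening hits, measuring inhibition of SENP7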
T4 sequence (Q9BQF6 whole entry): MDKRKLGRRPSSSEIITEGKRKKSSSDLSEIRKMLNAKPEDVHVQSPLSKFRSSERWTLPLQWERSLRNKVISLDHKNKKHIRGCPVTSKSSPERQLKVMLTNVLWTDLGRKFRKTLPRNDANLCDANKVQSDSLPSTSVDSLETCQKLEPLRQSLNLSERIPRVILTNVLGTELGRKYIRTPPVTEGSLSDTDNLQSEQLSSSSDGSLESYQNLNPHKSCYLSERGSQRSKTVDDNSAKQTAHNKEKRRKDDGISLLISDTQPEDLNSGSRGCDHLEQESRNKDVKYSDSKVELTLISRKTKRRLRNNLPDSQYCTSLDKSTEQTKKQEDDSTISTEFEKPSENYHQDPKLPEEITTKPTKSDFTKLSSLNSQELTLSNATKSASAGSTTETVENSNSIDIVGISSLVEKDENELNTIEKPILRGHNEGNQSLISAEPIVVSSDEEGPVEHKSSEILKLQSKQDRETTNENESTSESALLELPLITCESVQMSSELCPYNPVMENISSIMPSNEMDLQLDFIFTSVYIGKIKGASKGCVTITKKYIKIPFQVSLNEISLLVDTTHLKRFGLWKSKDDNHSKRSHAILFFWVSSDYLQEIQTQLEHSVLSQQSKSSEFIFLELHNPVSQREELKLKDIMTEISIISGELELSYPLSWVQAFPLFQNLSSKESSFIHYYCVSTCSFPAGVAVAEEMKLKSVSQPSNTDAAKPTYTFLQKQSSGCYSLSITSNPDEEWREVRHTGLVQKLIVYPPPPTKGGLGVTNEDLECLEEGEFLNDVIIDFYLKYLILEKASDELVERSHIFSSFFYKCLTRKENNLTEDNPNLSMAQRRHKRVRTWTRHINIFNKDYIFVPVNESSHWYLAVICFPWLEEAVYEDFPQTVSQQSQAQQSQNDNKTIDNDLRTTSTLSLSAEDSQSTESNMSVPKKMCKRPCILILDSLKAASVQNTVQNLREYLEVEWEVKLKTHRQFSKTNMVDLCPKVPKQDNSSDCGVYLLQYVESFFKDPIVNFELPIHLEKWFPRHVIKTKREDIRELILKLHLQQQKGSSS

Caspase-3 = molecular target: T5, Caspase-3 (Homo sapiens, UniProt P42574); assay type: functional;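 also: Dose-response selectivity test against caspase-3 for candidate inhibitors of sentrin-specific proteases (SENPs)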
T5 sequence (P42574 whole entry): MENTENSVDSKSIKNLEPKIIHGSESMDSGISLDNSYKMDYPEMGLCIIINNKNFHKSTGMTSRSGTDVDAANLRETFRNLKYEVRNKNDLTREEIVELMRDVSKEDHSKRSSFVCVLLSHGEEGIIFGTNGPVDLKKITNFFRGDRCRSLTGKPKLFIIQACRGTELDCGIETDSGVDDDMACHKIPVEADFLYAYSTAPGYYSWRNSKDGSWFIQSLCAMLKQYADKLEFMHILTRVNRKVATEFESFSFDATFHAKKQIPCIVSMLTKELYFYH

Caspase-8 = Caspase-8 (Homo sapiens, UniProt Q14790); assay: inhibitors of purified CASP8 protease – biochemical, Z-IETD-R110 fluorescence, cherry-picked samples, selectivity assay for caspase-6 inhibitor project, dose response (AID 743294)
Caspase-6 = Caspase-6 (Homo sapiens, UniProt P55212); assay: inhibition of CASP6 peptide cleavage – biochemical, VEID-R110 fluorescence, cherry-pick, dose response (AID 720632)
[17] = molecular target: Ubiquitin carboxyl-terminal hydrolase BAP1 (Homo sapiens, UniProt Q92560); assay: inhibition of BAP1 ubiquitin hydrolase activity – biochemical, dose response (AID 714); assay type: functional
[18] = molecular target: Glutathione-S-transferase (Schistosoma japonicum, UniProt Q26513); assay: GST-antibody interaction or FRET quenching – biochemical, TR-FRET, artefact control for Vif-APOBEC3G degradation inhibitor project, dose response (AID 1117362); assay type: functional
Bcl-2-like protein 10 = molecular target: T6, Bcl-2-like protein 10 (Homo sapiens, UniProt Q9HD36); assay: Bcl-B/TR3 peptide binding disruption – biochemical, fluorescence polarization, FITC-TR3 peptide, selectivity assay for Bfl-1 inhibitor project, primary screen (AID 748);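 also: fluorescence polarization from a fluorescein-labelled TR3 peptide binding purified Bcl-B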
T6 sequence (Q9HD36 whole entry): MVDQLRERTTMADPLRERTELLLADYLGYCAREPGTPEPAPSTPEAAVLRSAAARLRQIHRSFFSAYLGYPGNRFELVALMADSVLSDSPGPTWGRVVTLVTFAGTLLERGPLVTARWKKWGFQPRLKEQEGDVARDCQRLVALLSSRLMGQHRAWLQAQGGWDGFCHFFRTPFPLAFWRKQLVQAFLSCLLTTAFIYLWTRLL

Phospholipase D1 = Phospholipase D1 (Homo sapiens, UniProt Q13393); assay: PLD1 Cellular Concentration Response Study.; assay type: functional
Phospholipase D2 = Phospholipase D2 (Homo sapiens, UniProt O14939); assay: PLD2 Cellular Concentration Response Study.; assay type: functional
[19] = growth inhibition of yeast DHODH-expressing 3D7 parasites – SYBR Green, dry powder samples, dose response (AID 1159570); assay type: functional, cell-based;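 also: parasite growth measured after 72 hours of compound exposure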
[20] = toxicity to human HepG2 hepatoma cells – cell-based, plate reader, dry powder samples, cytotoxicity control, dose response (AID 1159569); assay type: functional;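 also: inhibitor potency with signal falling toward the positive control level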
[21] = Dd2 malaria parasite growth inhibition potency – SYBR Green, dry powder samples, dose response (AID 1159566); assay type: functional, cell-based;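 also: potency for growth inhibition with lower SYBR green DNA signal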
[22] = growth inhibition of PfATP4-mutant resistant parasites – NITD609-resistant line, SYBR Green, dry powder, dose response (AID 1159571); assay type: functional, cell-based;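 also: parasites synchronized at ring stage by sorbitol before testing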

Glutathione-S-transferase, sequence (Q26513 whole entry): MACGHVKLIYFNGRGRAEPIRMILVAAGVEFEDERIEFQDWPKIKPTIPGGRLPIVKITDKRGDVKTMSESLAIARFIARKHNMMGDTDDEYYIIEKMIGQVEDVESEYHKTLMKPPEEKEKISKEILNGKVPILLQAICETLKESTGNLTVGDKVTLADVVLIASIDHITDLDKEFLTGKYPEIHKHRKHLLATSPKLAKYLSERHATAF
Caspase-6, sequence (P55212 24-179 limits assumed): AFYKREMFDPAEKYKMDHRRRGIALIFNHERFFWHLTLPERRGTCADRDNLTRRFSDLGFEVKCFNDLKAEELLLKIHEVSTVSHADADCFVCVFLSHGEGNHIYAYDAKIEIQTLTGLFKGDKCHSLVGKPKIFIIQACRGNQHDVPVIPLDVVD
Caspase-6, sequence (P55212 194-293 limits assumed): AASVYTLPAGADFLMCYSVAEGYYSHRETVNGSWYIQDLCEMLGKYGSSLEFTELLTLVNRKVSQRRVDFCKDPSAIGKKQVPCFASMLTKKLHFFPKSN
Caspase-8, sequence (Q14790 217-374 limits assumed): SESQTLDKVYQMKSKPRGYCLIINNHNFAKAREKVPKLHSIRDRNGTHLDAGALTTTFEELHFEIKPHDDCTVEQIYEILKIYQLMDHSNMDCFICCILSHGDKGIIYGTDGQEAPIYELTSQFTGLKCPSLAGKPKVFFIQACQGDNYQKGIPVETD
Caspase-8, sequence (Q14790 385-479 limits assumed): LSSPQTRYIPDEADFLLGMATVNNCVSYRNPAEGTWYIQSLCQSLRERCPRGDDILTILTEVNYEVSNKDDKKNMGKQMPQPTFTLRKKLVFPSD
Caspase-7, sequence (P55210 24-198 limits assumed): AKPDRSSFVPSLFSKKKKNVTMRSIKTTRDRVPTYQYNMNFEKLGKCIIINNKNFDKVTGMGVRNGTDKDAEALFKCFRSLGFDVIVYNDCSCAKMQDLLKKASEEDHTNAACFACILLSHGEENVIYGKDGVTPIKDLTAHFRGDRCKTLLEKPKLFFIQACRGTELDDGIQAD
Caspase-7, sequence (P55210 207-303 limits assumed): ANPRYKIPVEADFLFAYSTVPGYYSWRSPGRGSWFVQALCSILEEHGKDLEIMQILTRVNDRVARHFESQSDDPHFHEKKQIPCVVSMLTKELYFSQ
Phospholipase D1, sequence (Q13393 whole entry): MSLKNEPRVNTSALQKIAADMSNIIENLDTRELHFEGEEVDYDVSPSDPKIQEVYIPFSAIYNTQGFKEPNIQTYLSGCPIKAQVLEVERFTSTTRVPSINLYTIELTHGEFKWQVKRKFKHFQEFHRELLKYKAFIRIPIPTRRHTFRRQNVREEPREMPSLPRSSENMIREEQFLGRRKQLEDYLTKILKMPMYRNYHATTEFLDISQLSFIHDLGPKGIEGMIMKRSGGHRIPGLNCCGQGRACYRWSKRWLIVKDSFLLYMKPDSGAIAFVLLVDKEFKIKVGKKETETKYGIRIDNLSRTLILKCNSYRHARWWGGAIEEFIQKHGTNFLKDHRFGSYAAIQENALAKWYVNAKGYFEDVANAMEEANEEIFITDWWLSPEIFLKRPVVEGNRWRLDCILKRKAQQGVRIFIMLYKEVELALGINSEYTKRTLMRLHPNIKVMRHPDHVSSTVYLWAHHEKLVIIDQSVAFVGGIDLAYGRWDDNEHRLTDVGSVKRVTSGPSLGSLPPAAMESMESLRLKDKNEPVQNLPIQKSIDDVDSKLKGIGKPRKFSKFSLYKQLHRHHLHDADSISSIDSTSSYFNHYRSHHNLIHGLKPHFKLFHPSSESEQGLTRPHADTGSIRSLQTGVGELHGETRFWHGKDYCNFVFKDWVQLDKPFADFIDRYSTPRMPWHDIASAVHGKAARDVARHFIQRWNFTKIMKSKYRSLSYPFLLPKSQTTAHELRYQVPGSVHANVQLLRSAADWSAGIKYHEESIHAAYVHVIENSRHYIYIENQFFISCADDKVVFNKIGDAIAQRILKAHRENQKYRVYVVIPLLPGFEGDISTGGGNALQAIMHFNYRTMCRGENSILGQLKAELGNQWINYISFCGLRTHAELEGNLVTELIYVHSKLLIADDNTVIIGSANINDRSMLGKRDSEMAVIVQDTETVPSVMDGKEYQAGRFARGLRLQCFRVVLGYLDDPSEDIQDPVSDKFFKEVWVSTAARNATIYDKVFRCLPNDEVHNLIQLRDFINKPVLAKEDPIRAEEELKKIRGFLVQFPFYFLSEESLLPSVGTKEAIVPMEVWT
Sphingosine 1-phosphate receptor 2, sequence (O95136 whole entry): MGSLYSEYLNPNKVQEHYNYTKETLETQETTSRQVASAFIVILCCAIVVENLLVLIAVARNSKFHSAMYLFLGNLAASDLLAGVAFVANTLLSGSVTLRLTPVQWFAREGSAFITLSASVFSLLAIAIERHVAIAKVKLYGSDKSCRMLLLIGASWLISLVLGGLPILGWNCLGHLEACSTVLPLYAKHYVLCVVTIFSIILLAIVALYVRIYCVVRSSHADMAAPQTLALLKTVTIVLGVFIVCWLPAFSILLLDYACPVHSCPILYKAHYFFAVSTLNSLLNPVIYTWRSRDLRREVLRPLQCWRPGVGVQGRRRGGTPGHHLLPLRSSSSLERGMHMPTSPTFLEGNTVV
Phospholipase D2, sequence (O14939 whole entry): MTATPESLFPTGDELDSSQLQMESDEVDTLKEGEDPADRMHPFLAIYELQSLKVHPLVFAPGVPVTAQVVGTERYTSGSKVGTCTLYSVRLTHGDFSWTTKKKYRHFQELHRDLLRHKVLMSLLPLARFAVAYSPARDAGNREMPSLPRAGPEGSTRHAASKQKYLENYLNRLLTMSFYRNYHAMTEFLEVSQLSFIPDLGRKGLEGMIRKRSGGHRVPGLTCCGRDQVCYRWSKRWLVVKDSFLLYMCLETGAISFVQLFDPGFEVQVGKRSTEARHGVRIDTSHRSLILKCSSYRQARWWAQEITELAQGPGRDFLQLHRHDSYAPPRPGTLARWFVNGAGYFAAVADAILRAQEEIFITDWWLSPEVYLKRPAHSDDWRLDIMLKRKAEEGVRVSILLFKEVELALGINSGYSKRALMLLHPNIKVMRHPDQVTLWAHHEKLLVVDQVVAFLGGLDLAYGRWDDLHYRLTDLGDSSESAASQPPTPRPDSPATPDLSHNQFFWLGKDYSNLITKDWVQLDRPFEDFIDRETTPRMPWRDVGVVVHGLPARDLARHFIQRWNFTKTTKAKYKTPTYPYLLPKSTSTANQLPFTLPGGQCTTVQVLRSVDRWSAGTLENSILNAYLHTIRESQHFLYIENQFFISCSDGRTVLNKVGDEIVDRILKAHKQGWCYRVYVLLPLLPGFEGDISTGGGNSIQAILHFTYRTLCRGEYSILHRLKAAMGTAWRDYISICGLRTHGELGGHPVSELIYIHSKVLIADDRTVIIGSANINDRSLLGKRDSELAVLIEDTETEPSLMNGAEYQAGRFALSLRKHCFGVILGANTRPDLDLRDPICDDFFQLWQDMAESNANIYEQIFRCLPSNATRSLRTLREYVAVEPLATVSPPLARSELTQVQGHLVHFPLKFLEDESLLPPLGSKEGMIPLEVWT
G-protein coupled receptor 183, sequence (P32249 whole entry): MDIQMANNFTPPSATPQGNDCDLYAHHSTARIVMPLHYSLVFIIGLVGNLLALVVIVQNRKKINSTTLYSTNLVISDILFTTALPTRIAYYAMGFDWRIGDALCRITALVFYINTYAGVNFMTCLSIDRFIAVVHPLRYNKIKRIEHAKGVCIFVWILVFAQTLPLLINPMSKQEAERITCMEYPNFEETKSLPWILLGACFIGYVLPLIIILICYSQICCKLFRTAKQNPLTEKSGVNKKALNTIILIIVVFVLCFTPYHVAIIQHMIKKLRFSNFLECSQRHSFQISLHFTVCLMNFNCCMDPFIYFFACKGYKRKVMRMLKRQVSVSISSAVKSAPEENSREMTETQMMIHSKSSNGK
Ubiquitin carboxyl-terminal hydrolase BAP1, sequence (Q92560 whole entry): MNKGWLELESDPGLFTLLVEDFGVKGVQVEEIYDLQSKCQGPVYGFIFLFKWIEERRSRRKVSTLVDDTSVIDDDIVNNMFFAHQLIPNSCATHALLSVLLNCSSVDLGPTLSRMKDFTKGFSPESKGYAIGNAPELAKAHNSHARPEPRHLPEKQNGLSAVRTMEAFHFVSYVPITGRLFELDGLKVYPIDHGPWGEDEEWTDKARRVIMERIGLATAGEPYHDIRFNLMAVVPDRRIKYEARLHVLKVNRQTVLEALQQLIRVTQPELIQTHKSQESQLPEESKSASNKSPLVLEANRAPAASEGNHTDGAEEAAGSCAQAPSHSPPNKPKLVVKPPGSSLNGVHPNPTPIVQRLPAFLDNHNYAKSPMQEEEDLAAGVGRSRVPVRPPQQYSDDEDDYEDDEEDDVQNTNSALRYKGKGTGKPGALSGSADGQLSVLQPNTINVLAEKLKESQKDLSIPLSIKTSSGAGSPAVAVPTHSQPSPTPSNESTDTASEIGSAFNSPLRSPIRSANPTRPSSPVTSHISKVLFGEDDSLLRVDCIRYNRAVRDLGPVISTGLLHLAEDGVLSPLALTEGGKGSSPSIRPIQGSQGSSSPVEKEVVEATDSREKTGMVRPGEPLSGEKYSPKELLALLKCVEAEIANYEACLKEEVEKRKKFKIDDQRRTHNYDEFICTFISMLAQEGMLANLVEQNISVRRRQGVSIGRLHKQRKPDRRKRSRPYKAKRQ

Cc1cc2c(OCC(CNC(C)(C)C)OC(=O)c3ccccc3)cccc2[nH]1 (stereo unspecified) [BOPINDOLOL]
IC50 [1]: 14.6 µM (inactive)
IC50 (cells): > 33.3 µM (inactive)

CCOC(=O)c1c(-c2ccc(C(C)(C)C)cc2)csc1NC(=O)CN1CCN(CC)CC1
AC50 [2]: 11.9 µM (active)
AC50 [3]: 15.3 µM (active)
AC50 [4]: 9.03 µM (active)

Oc1nc(-c2cccs2)nc2ccccc12
EC50 [5]: > 50 µM (not active)

COC(=O)c1ccc(-n2c(C)cc(C(=O)CSc3ccc(N(C)C(C)=O)cc3)c2C)cc1
EC50 [6]: 10 µM (active)

COc1cccc(-c2ccc([C@@H]3[C@@H](CO)N4CCCCN(C(=O)Cc5ccncc5)C[C@@H]34)cc2)c1
AC50 [7]: > 26 µM (inactive)

O=C(C1CCC1)N1C[C@@H]2N[C@H](C1)[C@@H]2c1ccc(/C=C/c2ccccc2)cc1
AC50 [8]: 3.76 µM (active)
AC50 [9]: 11.5 µM (active)

O=C(/C=C/c1ccc(F)cc1)N1CCN(S(=O)(=O)c2ccccc2F)CC1
IC50 [10]: 0.0194 µM (active)

COc1ccccc1Cn1c(-c2ccccc2OC)nc2ccccc21
CC50 [11]: > 40 µM (active)
IC50 [12]: > 100 µM (active)

O=C1CN(C(=O)COC(=O)c2ccc([N+](=O)[O-])s2)c2ccccc2N1
IC50 [13]: 52.9 µM (active)
AC50 (Caspase-7): 20 µM (active)
IC50 [14]: 47.9 µM (active)
EC50 [15]: 17.4 µM (inactive)
IC50 [16]: 92 µM (active)
IC50 (Caspase-3): 96.6 µM (active)
AC50 (Caspase-8): 19.6 µM (active)
AC50 (Caspase-6): 3.32 µM (active)

Cc1sc(NC(=O)CSc2nnc(C)c(=O)[nH]2)c(C#N)c1C
IC50 [17]: > 50 µM (not active)

Cc1ccc(OCCSc2nnc(-c3ccncc3)n2C)cc1
IC50 [18]: > 100 µM (active)
IC50 (Bcl-2-like protein 10): > 100 µM (inactive)

O=C(NCCN1CCC2(CC1)C(=O)NCN2Cc1ccc(Cl)cc1)c1ccc2ccccc2c1
IC50 (Phospholipase D1): 6.78 µM (active)
IC50 (Phospholipase D2): 1.54 µM (active)

O=C(Nc1ccc(C(F)(F)F)cc1)N1C[C@@H]2N[C@H](C1)[C@@H]2c1ccc(-c2cccnc2)cc1
AC50 [19]: 0.0146 µM (active)
AC50 [20]: 18.6 µM (active)
AC50 [8]: 1.12 µM (active)
AC50 [21]: 0.0354 µM (active)
AC50 [22]: 0.022 µM (active)
